The term inhibition denotes the share of the control response that was lost under treatment. By IC50 is commonly meant the concentration that gives 50% inhibition. Low readings indicate higher potency, high ones lower potency.

We go through 36 compounds from the Kinase Knowledgebase extract (Sharma et al. 2016).

The target of assay [1] is CDK2 (UniProt P24941). Kind of assay: Enzyme Assay. The conditions noted are these: for inhibition: concentration not given here.
In a further assay the target is MAPK14 (human) (UniProt Q16539). Kind of assay: Inhibition of MAPK14 Kinase Activity. The conditions noted are these: for inhibition: concentration not given here.
Another assay addresses ROCK2 (rat) (UniProt Q62868). Kind of assay: Inhibition of ROCK2 Kinase Activity. The conditions noted are these: concentration not given here.
For assay [2], the target named is CDK2 (UniProt P24941). Kind of assay: Enzyme Assay.

Sequence of MAPK14 (human) (Q16539 whole entry, looked up): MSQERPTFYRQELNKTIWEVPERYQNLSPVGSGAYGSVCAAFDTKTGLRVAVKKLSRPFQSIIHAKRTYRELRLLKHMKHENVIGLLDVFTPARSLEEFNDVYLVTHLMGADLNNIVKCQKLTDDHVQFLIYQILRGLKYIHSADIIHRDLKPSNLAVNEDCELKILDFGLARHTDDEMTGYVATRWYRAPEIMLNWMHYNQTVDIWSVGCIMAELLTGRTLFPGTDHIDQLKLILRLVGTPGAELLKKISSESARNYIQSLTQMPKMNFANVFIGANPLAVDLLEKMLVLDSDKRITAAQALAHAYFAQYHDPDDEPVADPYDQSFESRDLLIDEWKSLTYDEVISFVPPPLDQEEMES
Sequence of ROCK2 (rat) (Q62868 whole entry, looked up): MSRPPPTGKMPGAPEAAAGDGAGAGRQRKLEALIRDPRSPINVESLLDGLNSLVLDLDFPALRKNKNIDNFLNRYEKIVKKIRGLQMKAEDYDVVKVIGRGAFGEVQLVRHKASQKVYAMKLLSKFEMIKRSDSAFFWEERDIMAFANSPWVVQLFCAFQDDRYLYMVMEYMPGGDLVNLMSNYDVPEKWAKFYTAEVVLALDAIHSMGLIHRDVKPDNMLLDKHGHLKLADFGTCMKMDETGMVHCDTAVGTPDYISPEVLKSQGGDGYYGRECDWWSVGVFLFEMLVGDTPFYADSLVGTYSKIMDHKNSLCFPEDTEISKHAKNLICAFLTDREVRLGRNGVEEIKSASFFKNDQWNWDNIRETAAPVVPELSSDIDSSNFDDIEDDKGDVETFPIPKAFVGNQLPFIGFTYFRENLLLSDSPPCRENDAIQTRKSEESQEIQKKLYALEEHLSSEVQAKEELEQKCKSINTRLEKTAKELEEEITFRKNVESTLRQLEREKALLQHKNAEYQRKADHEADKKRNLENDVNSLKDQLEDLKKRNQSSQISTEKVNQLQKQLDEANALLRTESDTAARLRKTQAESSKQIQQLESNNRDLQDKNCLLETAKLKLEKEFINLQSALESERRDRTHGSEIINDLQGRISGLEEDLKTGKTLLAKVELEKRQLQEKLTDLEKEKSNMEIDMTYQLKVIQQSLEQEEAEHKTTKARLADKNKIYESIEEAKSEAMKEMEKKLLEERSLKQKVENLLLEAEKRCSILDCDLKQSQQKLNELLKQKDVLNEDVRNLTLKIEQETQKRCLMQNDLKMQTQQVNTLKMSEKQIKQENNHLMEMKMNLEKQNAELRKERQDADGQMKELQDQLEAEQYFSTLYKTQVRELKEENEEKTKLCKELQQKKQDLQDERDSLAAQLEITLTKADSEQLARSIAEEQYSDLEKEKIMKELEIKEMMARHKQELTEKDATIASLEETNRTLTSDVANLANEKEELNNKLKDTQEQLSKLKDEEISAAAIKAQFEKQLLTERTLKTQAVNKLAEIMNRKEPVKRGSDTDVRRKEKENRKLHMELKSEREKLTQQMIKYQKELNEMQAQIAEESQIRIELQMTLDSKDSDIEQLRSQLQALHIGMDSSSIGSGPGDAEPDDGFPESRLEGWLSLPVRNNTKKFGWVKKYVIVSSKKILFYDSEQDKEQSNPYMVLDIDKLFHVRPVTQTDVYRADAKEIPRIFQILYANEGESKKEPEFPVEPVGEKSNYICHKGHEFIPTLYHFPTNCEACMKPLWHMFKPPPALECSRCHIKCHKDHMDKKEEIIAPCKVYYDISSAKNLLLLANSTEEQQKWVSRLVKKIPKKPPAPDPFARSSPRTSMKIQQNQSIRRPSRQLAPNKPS

`Cc1nc(CS(=O)(=O)c2cccs2)sc1-c1ccnc(Nc2ccc(N3CCOCC3)cc2)n1`: the values for the inhibition against CDK2 [1], on MAPK14 (human) and against ROCK2 (rat) were 91%, 67% and 86%, respectively.

Turning to `CNc1nc(C)c(-c2ccnc(Nc3ccc(S(N)(=O)=O)cc3)n2)s1`, the IC50 against MAPK14 (human) is above 10000 nM.

As for `Cc1nc(C)c(-c2ccnc(Nc3cccc(N4CCOCC4)c3)n2)s1`, the IC50 at CDK2 [2] came to 320 nM.

For `CNc1nc(C)c(-c2ccnc(Nc3cccc(S(=O)(=O)NCCO)c3)n2)s1`, the IC50 against CDK2 [2] turned out to be 320 nM.

In turn, `CNc1nc(C)c(-c2ccnc(Nc3ccc(OC)c(C)c3)n2)s1` returned an IC50 on CDK2 [2] of 120 nM.

Consider `CCNc1nc(C)c(-c2ccnc(Nc3ccc(N4CCNCC4)cc3)n2)s1`, for which the IC50 on CDK2 [1] stood at 50 nM; against CDK2 [2], 251 nM. The inhibition stood at 99% against CDK2 [1], 61% against MAPK14 (human) and 95% at ROCK2 (rat).

`CNc1nc(C)c(-c2ccnc(Nc3cccc(S(=O)(=O)NC)c3)n2)s1`: at CDK2 [2], the IC50 worked out at 60 nM.

In the case of `CNc1nc(C)c(-c2ccnc(Nc3ccc(S(C)(=O)=O)cc3)n2)s1`, the IC50 against CDK2 [2] stood at 2 nM.

In the case of `COc1cc(Nc2nccc(-c3sc(CO)nc3C)n2)ccc1N1CCOCC1`, the IC50 against CDK2 [2] is 2510 nM.

As for `Cc1nc(C)c(-c2ccnc(Nc3cccc(S(C)(=O)=O)c3)n2)s1`, on CDK2 [2], the IC50 was found to be 320 nM.

Compound `Cc1nc(N(C)c2cccnc2)sc1-c1ccnc(Nc2ccc(N3CCOCC3)cc2)n1` came in with an IC50 against CDK2 [2] of 3200 nM.

As for `Cc1nc(NC(C)(C)C)sc1-c1ccnc(Nc2ccc(N3CCOCC3)cc2)n1`, the IC50 at CDK2 [2] came out at 120 nM.

Compound `Cc1nc(N)sc1-c1ccnc(Nc2cccc(S(=O)(=O)N3CCOCC3)c2)n1` yielded an IC50 on CDK2 [2] of 3200 nM.

As to `CNc1nc(C)c(-c2ccnc(Nc3ccc(C)c(S(=O)(=O)N4CCOCC4)c3)n2)s1`, the 50% inhibitory concentration (IC50) at MAPK14 (human) is above 10000 nM; against CDK2 [2], 3200 nM.

`CCNc1nc(C)c(-c2ccnc(Nc3ccc(CNC(C)=O)cc3)n2)s1` yielded an IC50 against CDK2 [1] of 120 nM. This counts as sub-micromolar.

`Cc1ccc(Nc2nccc(-c3sc(N)nc3C)n2)cc1S(=O)(=O)N1CCOCC1` showed an IC50 against MAPK14 (human) above 10000 nM.

At CDK2 [1], `CCNc1nc(C)c(-c2ccnc(Nc3ccc(S(=O)(=O)NCCOC)cc3)n2)s1` showed an IC50 of 12 nM.

With `Cc1nc(N)sc1-c1ccnc(Nc2ccc(S(=O)(=O)NCc3ccccc3)cc2)n1`, the IC50 against CDK2 [2] was found to be 12 nM. This lies in the double-digit nanomolar range.

Consider `CCNc1nc(C)c(-c2ccnc(Nc3ccc(N4CCN(Cc5ccccc5)CC4)cc3)n2)s1`, for which, on CDK2 [1], the IC50 was 3200 nM. That is a single-digit micromolar value.

Regarding `CNc1nc(C)c(-c2ccnc(Nc3cc(OC)cc(OC)c3)n2)s1`, the IC50 against CDK2 [2] amounted to 320 nM.

Turning to `Cc1nc(N)sc1-c1ccnc(Nc2cccc(S(=O)(=O)NCCO)c2)n1`, the IC50 at CDK2 [2] was found to be 120 nM.

`CNc1nc(C)c(-c2ccnc(Nc3cccc(S(=O)(=O)NC(C)=O)c3)n2)s1` had an IC50 on CDK2 [1] of 3200 nM. That is a single-digit micromolar value.

`CCNS(=O)(=O)c1ccc(Nc2nccc(-c3sc(C)nc3C)n2)cc1` displayed an IC50 on CDK2 [2] of 60 nM.

On to `CCNc1nc(C)c(-c2ccnc(Nc3ccc(S(N)(=O)=O)cc3)n2)s1`, for which the IC50 at CDK2 [1] amounted to 6 nM.

Turning to `CNc1nc(C)c(-c2ccnc(Nc3ccc(C)c(Br)c3)n2)s1`, the concentration for half-maximal inhibition (IC50) on CDK2 [2] worked out at 320 nM.

For the compound `COCCNS(=O)(=O)c1cccc(Nc2nccc(-c3sc(N)nc3C)n2)c1`, the values for the IC50 against MAPK14 (human) and against CDK2 [2] were above 10000 nM and 260 nM, respectively.

Consider `CNc1nc(C)c(-c2ccnc(Nc3ccc(S(=O)(=O)NCCO)cc3)n2)s1`, for which the concentration for half-maximal inhibition (IC50) against CDK2 [2] was 6 nM.

`Cc1nc(N)sc1-c1ccnc(Nc2cccc(CNS(=O)(=O)C(F)(F)F)c2)n1` gave an IC50 against CDK2 [2] of 60 nM.

On CDK2 [1], `CCNc1nc(C)c(-c2ccnc(Nc3ccc(S(=O)(=O)NCc4ccccc4)cc3)n2)s1` gave an IC50 of 3200 nM.

Consider `CCNc1nc(C)c(-c2ccnc(Nc3cccc(S(=O)(=O)NCC)c3)n2)s1`, for which the IC50 against CDK2 [2] turned out to be 320 nM. This counts as sub-micromolar.

`CCNc1nc(C)c(-c2ccnc(Nc3cccc(CC(=O)OCCOC)c3)n2)s1`: the IC50 against CDK2 [1] came to 3200 nM.

`CNc1nc(C)c(-c2ccnc(Nc3ccc(S(=O)(=O)NCCOC)cc3)n2)s1` yielded an IC50 at CDK2 [2] of 3 nM. In other words, the single-digit nanomolar range.

Turning to `CNc1nc(C)c(-c2ccnc(Nc3cccc(S(C)(=O)=O)c3)n2)s1`, the IC50 against CDK2 [1] was 6 nM; against MAPK14 (human), above 10000 nM.

`Cc1nc(C)c(-c2ccnc(Nc3cccc(S(=O)(=O)NCCO)c3)n2)s1` came in with an IC50 against CDK2 [2] of 320 nM.

With `COCCOC(=O)COc1cccc(Nc2nccc(-c3sc(N)nc3C)n2)c1`, the half-inhibitory concentration (IC50) against CDK2 [2] was found to be 1000 nM.

Take `CCOC(=O)Cc1cccc(NS(=O)(=O)c2ccc(Nc3nccc(-c4sc(NC)nc4C)n3)cc2)c1`: the IC50 against CDK2 [1] is 3200 nM.
